Measurements as given in PubChem BioAssay (NCI).
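Compound exposure: 48 hours, 5 concentrations, 96-well plates. At the TGI there is no net growth.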

Tests used:
Experiment in all cases: NCI-60 cell line screen, 48 h
CAKI-1 renal = test system: CAKI-1 renal
HCT-15 colon = test system: HCT-15 colon
MALME-3M melanoma = test system: MALME-3M melanoma
MOLT-4 leukemia = test system: MOLT-4 leukemia
NCI-H226 lung = test system: NCI-H226 lung
OVCAR-4 ovarian = test system: OVCAR-4 ovarian
OVCAR-8 ovarian = test system: OVCAR-8 ovarian
SF-295 CNS = test system: SF-295 CNS
SK-OV-3 ovarian = test system: SK-OV-3 ovarian
SN12C renal = test system: SN12C renal
SR leukemia = test system: SR leukemia
TK-10 renal = test system: TK-10 renal
UACC-62 melanoma = test system: UACC-62 melanoma
HL-60(TB) leukemia = test system: HL-60(TB) leukemia
SNB-75 CNS = test system: SNB-75 CNS

Row | SMILES | TGI (CAKI-1 renal) [µM] | TGI (HCT-15 colon) [µM] | TGI (MALME-3M melanoma) [µM] | TGI (MOLT-4 leukemia) [µM] | TGI (NCI-H226 lung) [µM] | TGI (OVCAR-4 ovarian) [µM] | TGI (OVCAR-8 ovarian) [µM] | TGI (SF-295 CNS) [µM] | TGI (SK-OV-3 ovarian) [µM] | TGI (SN12C renal) [µM] | TGI (SR leukemia) [µM] | TGI (TK-10 renal) [µM] | TGI (UACC-62 melanoma) [µM] | TGI (HL-60(TB) leukemia) [µM] | TGI (SNB-75 CNS) [µM]
1 | N#Cc1nc(CSCc2ccccc2)oc1N | > 100 | > 100 | > 100 | > 100 | > 100 | > 100 | > 100 | > 100 | > 100 | > 100 | > 100 | > 100 | > 100 | – | –
2 | CC1=NN(c2nc(N)nc(/C(C#N)=C/c3ccc([N+](=O)[O-])o3)n2)C(C)(C)C1 | 3.81 | – | 4.23 | 6.12 | 6.9 | 25.7 | 8.91 | 33.8 | > 52.3 | – | – | 4.52 | 5.31 | 6.32 | 10.1
3 | CSc1ccccc1P(c1ccccc1SC)c1ccccc1SC | > 100 | > 100 | > 100 | > 100 | > 100 | > 100 | > 100 | > 100 | > 100 | > 100 | > 100 | > 100 | > 100 | – | –
4 | CCOc1cc(-c2nc3ccccn3c2/N=C/c2cc([N+](=O)[O-])cc([N+](=O)[O-])c2O)ccc1O | > 100 | > 100 | > 100 | > 100 | – | > 100 | > 100 | > 100 | > 100 | > 100 | > 100 | > 100 | > 100 | > 100 | > 100
5 | O[C@@]1(c2cccs2)c2cccc(Cl)c2[C@](O)(c2cccs2)c2cccc(Cl)c21 | > 100 | 61.7 | 37.2 | 56.3 | 57.1 | 40.9 | > 100 | 31.3 | 74.2 | 34.1 | – | 99.4 | 23.8 | 46.3 | > 100
6 | CC1(C)OCC2(CO1)CSCCCSCC1(COC(C)(C)OC1)CSCCCSC2 | – | > 100 | – | > 100 | – | > 100 | > 100 | > 100 | > 100 | > 100 | > 100 | > 100 | > 100 | > 100 | > 100
7 | COc1ccc(-c2cc(-c3ccc(Cl)cc3)n(C3OC(CO)C(O)C(O)C3O)c(=S)c2C#N)cc1 (stereo not given) | – | > 100 | – | > 100 | – | > 100 | > 100 | > 100 | > 100 | > 100 | > 100 | 82.8 | > 100 | – | > 100
8 | CC(NC(=O)C(OC(=O)C(C)NC(=O)OC(C)(C)C)C(C)C)C(=O)OC(C(=O)O)C(C)C (stereo not given) | > 100 | > 100 | > 100 | > 100 | > 100 | – | > 100 | > 100 | > 100 | > 100 | > 100 | > 100 | > 100 | – | > 100
9 | N#Cc1nc(C2CC2)oc1N | > 100 | > 100 | > 100 | > 100 | > 100 | > 100 | > 100 | > 100 | > 100 | > 100 | > 100 | > 100 | > 100 | – | > 100
10 | N=C(N)C1CN(CCc2cnc[nH]2)C(=O)NC1=O (stereo not given) | > 100 | > 100 | > 100 | > 100 | – | > 100 | > 100 | > 100 | > 100 | > 100 | > 100 | > 100 | > 100 | > 100 | > 100
11 | O=C(O)c1nc2cc(C(F)(F)F)ccc2nc1Nc1ccc(Cl)c(Cl)c1 | 80.3 | 24.8 | 38.7 | – | 34 | 65.9 | 26 | 31.7 | 30.7 | – | 96.3 | 37.1 | 25 | – | 53.3
12 | C[C@@]12c3c4ccc(C=O)c3Oc3ccc(C=O)c(c31)Oc1c(C=O)ccc(c12)O4 | – | > 100 | > 100 | > 100 | > 100 | > 100 | > 100 | > 100 | > 100 | > 100 | > 100 | > 100 | > 100 | – | > 100
13 | CN(C)/C(N)=N/C(N)=Nc1cccc(Cl)c1 | > 100 | > 100 | > 100 | > 100 | 79.3 | > 100 | > 100 | > 100 | > 100 | > 100 | > 100 | > 100 | > 100 | – | > 100
14 | O=C1NCN(c2ccccc2)C12CCN(CCc1ccc3[nH]c(=S)[nH]c3c1)CC2 | > 100 | > 100 | 30.8 | > 100 | – | > 100 | > 100 | > 100 | > 100 | > 100 | – | 92.9 | > 100 | > 100 | –
15 | Cc1cccc2[nH]c3cc(O)cc(O)c3c(=O)c12 | > 10 | > 10 | > 10 | > 10 | > 10 | > 10 | > 10 | > 10 | > 10 | > 10 | – | > 10 | > 10 | – | > 10
16 | NC(=O)c1cc(-c2ccc(-n3ccnc3)cc2)n[nH]c1=O | > 100 | > 100 | > 100 | > 100 | – | > 100 | > 100 | – | > 100 | > 100 | > 100 | > 100 | > 100 | > 100 | > 100
17 | Cc1cc(C)nc(NS(=O)(=O)c2ccc(NN=c3c4ccccc4n(C)c4ccccc34)cc2)n1 | > 100 | > 100 | 91.3 | 79.6 | > 100 | 99.3 | > 100 | > 100 | > 100 | > 100 | – | > 100 | > 100 | > 100 | 96.9

Row | SMILES | TGI (CAKI-1 renal) [µM] | TGI (HCT-15 colon) [µM] | TGI (MALME-3M melanoma) [µM] | TGI (MOLT-4 leukemia) [µM] | TGI (NCI-H226 lung) [µM] | TGI (OVCAR-4 ovarian) [µM] | TGI (OVCAR-8 ovarian) [µM] | TGI (SF-295 CNS) [µM] | TGI (SK-OV-3 ovarian) [µM] | TGI (SN12C renal) [µM] | TGI (SR leukemia) [µM] | TGI (TK-10 renal) [µM] | TGI (UACC-62 melanoma) [µM] | TGI (HL-60(TB) leukemia) [µM] | TGI (SNB-75 CNS) [µM]
18 | O=C(O)CN=C(C(=NCC(=O)O)c1ccccc1)c1ccccc1 | > 100 | > 100 | > 100 | > 100 | > 100 | > 100 | > 100 | > 100 | > 100 | > 100 | > 100 | > 100 | > 100 | – | > 100
19 | COC1(C(C)(C)C)C=C(C(C)(C)C)P(=O)(O)O1 (stereo not given) | > 100 | > 100 | > 100 | – | – | > 100 | > 100 | > 100 | > 100 | > 100 | > 100 | > 100 | > 100 | > 100 | > 100
20 | C=C1CC(Cn2ccc(=O)[nH]c2=O)(c2ccc(-c3ccccc3)cc2)OC1=O (stereo not given) | 2.7 | 3.72 | 3.42 | 5.26 | 13.6 | – | 11.1 | 25.3 | 21.1 | 21.3 | – | 2.32 | 1.88 | – | 26.7
21 | CCN(CC)c1ccc2c(c1)OC(=O)C(c1nnc(-c3ccc([N+](=O)[O-])cc3)o1)C2 (stereo not given) | > 100 | > 100 | > 100 | > 100 | > 100 | > 100 | > 100 | > 100 | > 100 | – | – | > 100 | > 100 | > 100 | > 100
22 | Oc1[nH]c2ccccc2c1N=NC(=S)N1CCCCC1 | 4.43 | 2.42 | 2.2 | 2.15 | 5.02 | 4.48 | 1.8 | 3.36 | 7.62 | 15.1 | 4.31 | 3.84 | 4.01 | – | 6.71
23 | CC1CC(C)[C@H](O)C([C@H](O)CC2CC(=O)N(C)C(=O)C2)C1 (stereo not given in full) | > 100 | > 100 | > 100 | > 100 | > 100 | > 100 | > 100 | > 100 | > 100 | > 100 | – | > 100 | > 100 | > 100 | > 100
24 | O=C(c1ccco1)C1CC(c2ccc3ccccc3c2O)=NN1 (stereo not given) | > 100 | > 100 | > 100 | > 100 | > 100 | > 100 | > 100 | > 100 | > 100 | > 100 | > 100 | > 100 | > 100 | – | > 100
25 | Nc1nc(Cl)c(N)c(NCC2(CO)CC(Cc3ccccc3)C2)n1 (stereo not given) | > 100 | > 100 | > 100 | > 78.8 | > 100 | > 100 | > 100 | > 100 | > 100 | > 100 | – | > 100 | > 100 | 17.3 | > 100
26 | CCOC(=O)[C@@H]1C[C@H]1c1ccc(O)c(O)c1 | > 100 | > 100 | > 100 | > 100 | > 100 | – | > 100 | > 100 | > 100 | > 100 | > 100 | > 100 | 34.9 | – | –
27 | COC(=O)CCC1(C)C2CCC1(C)/C(=N/O)C2 (stereo not given) | > 100 | > 100 | > 100 | > 100 | > 100 | > 100 | > 100 | > 100 | > 100 | > 100 | – | > 100 | > 100 | – | > 100
28 | CCC(C)C(C(=O)N/N=C1/SCC(=O)N1C)C(=O)N/N=C1/SCC(=O)N1C (stereo not given) | > 100 | > 100 | > 100 | > 100 | > 100 | > 100 | > 100 | > 100 | > 100 | > 100 | – | > 100 | > 100 | 7.65 | > 100
29 | CCN(CC)CCNc1ccc2ncn3c4c(OC)ccc(OC)c4c(=O)c1c23 | > 100 | 38.5 | 41.8 | 30.4 | > 100 | – | 68.5 | 29.7 | 44.9 | – | 43.6 | > 100 | 57.5 | – | 23.3
30 | CNC(=O)CCNC(=O)CCC(=O)N(C)C | > 100 | > 100 | > 100 | > 100 | – | > 100 | > 100 | > 100 | > 100 | > 100 | > 100 | > 100 | > 100 | – | –
31 | O=C(C/C(=N\NC(=O)C[n+]1ccccc1)C(=O)Nc1nc2ccc([N+](=O)[O-])cc2s1)CC(c1ccccc1)c1c(O)c2ccccc2oc1=O (stereo not given) | > 100 | – | > 100 | > 100 | – | > 100 | > 100 | > 100 | > 100 | > 100 | > 100 | > 100 | > 100 | > 100 | –
32 | Nc1nc(N)c(C2=CCN(Cc3ccccc3)CC2)c(=O)[nH]1 | > 100 | > 100 | > 100 | > 100 | > 100 | > 100 | > 100 | > 100 | > 100 | > 100 | – | – | > 100 | > 100 | > 100
33 | O=C(CC(=O)C(=O)Nc1ccccc1)CC(c1ccccc1)c1c(O)c2ccccc2oc1=O (stereo not given) | > 100 | > 100 | > 100 | > 100 | > 100 | – | – | > 100 | > 100 | – | – | > 100 | > 100 | > 100 | > 100
34 | CC1CC(=O)Nc2cc(Cl)ccc2N1C(=O)C1CC1 (stereo not given) | > 100 | > 100 | > 100 | > 100 | > 100 | > 100 | > 100 | > 100 | > 100 | > 100 | – | > 100 | – | > 100 | –
